Data from US9078871B2, “Estrogen receptor modulators and uses thereof” (SERAGON PHARMACEUTICALS, INC., priority 2010, dated 2015).

Assays:
Assay type in all cases: cell-based
MCF-7 cells = assay: Breast Cancer Cell Viability Assay (MCF7 Viability Assay); details: 5 days' compound exposure, CellTiter-Glo; for IC50: Homo sapiens, MCF7, 120 h
Protocol: MCF-7 cells were adjusted to a concentration of 20,000 cells per mL in RPMI containing 10% FBS and 20 mM HEPES. 16 microliters of the cell suspension (320 cells) was added to each well of a 384 well plate, and the cells were incubated overnight to allow the cells to adhere. The following day an eleven point, serial semilog dilution of each compound was added to the cells in 16 μL at a final concentration ranging from 0.3-0.000003 μM. After 5 days' compound exposure, 16 μL of CellTiter-GLo (Promega, Madison Wis.) was added to the cells the relative luminescence units (RLUs) of each well was determined. CellTiter-Glo added to 32 μL of medium without cells was used to obtain a background value. The Percent viability of each sample was determined as follows: (RLU sample-RLU background/RLU untreated cells-RLU background)×100=% viability.

ER-α [1] = target: T1, ER-α (Homo sapiens, UniProt P03372); assay: ER-α In Cell Western Assay (ER1D5); details: MCF-7 cells, ER1D5 antibody, 4 or 24 hr post compound addition, read-out: ER In-Cell Western Assay (ER1D5); for Emax: MCF7, Max Response; for DC50: IC50
T1 construct: endogenous in cells; host or cells: MCF-7
T1 sequence (P03372 1-595): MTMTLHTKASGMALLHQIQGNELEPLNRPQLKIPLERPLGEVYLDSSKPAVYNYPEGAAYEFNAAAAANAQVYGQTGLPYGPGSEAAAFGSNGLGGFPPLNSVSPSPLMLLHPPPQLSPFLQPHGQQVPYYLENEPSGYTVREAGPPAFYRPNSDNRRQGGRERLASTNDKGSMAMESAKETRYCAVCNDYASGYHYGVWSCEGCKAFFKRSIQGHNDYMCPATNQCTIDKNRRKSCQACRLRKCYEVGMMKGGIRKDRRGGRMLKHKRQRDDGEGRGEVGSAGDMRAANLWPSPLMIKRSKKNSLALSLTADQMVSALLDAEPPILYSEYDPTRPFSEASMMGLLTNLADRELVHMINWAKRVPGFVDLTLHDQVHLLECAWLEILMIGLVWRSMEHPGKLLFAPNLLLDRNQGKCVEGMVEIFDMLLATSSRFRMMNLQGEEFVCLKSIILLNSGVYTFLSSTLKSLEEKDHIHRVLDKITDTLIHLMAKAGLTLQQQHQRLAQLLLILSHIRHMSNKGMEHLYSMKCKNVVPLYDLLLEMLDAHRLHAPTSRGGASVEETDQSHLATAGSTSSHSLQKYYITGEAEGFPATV
Protocol: (§1) MCF-7 cells were adjusted to a concentration of 200,000 cells per mL in RPMI containing 10% charcoal-stripped FBS and 20 mM HEPES. 16 microliters of the cell suspension (3200 cells) was added to each well of a poly-D-lysine 384 well plate, and the cells were incubated overnight to allow the cells to adhere. The following day an eleven point, serial semilog dilution of each compound was added to the cells in 16 μL at a final concentration ranging from 0.3-0.000003 μM. At 4 or 24 hr post compound addition, the cells were fixed (10% formalin in PBS) for 20 minutes. Cells were permeabalized in PBS 0.1% Triton and blocked with LICOR blocking buffer (50 μl/well, 90′). The wells were then incubated overnight at 4° C. with ER1D5 (Santa Cruz Biotechnology) diluted 1:100 in LICOR blocking buffer/0.1% Tween-20. Wells which were treated with blocking buffer with Tween but no antibody were used as a background control. Wells were washed with 0.1% Tween-20/PBS and then incubated in goat anti-mouse IRDye™ 800CW (LICOR Inc.; 1:1000) and DRAQ5 DNA dye (1:2000 for 2 mM stock) diluted in LICOR blocking buffer containing 0.1% Tween-20 and 0.01% SDS for 60 minutes. Cells were washed (50 μl/well, 5′ each) in 0.1% Tween-20/PBS. Plates were scanned on a LICOR Odyssey infrared imaging system. Integrated intensities in the 800 nm channel and 700 nm channel were measured to determine levels of ER and DNA respectively. Percent ER levels were determined as follows: (Integrated intensity 800 nm sample/integrated intensity 700 nm sample)/(Integrated intensity 800 nm untreated cells/integrated intensity 700 nm untreated cells)×100=% ER levels.

ER-α [2] = target: T1, ER-α; assay: ER-α in Cell Western Assay (SP1); details: MCF-7 cells, SP1 rabbit monoclonal Ab, 4 or 24 hr post compound addition, read-out: ER In-Cell Western Assay (SP1); for Emax: MCF7, Max Response; for DC50: IC50
Protocol: as §1, with “with SP1 rabbit monoclonal Ab (Thermo Scientific)” for “with ER1D5 (Santa Cruz Biotechnology)”, “diluted 1:1000” for “diluted 1:100”, “goat anti-rabbit” for “goat anti-mouse”

Row | Structure (SMILES) | MCF7 Viability Assay Max Response (MCF-7 cells) | IC50 (MCF-7 cells) [nM] | Emax (ER-α [1]) [%] | DC50 (ER-α [1]) [nM] | Emax (ER-α [2]) [%] | DC50 (ER-α [2]) [nM]
1 | CNCCOc1ccc(C2Oc3ccc(O)cc3C(C)=C2c2cccc(O)c2)cc1 (stereo not drawn) [Example 3, 3-(3-Hydroxyphenyl)-4-methyl-2-(4-(2-(methylamino)ethoxy)phenyl)-2H-chromen-6-ol] | ++ (++ = a single % value ≧50%) | ≤ 1 | < 40 | ≤ 1 | < 60 | ≤ 1
2 | CC1=C(c2cccc(O)c2)C(c2ccc(N(C)CCO)cc2)Oc2ccc(O)cc21 (stereo not drawn) [Example 4, 2-(4-((2-Hydroxyethyl)(methyl)amino)phenyl)-3-(3-hydroxyphenyl)-4-methyl-2H-chromen-6-ol] | + (+ = a single % value <50%) | > 1 | < 40 | > 1 | < 60 | > 1
3 | CCN(CC)CCOc1ccc(C2Oc3ccc(O)cc3C(C)=C2c2cccc(O)c2)cc1 (stereo not drawn) [Example 5, 2-(4-(2-(Diethylamino)ethoxy)phenyl)-3-(3-hydroxyphenyl)-4-methyl-2H-chromen-6-ol] | ++ (++ = a single % value ≧50%) | ≤ 1 | < 40 | > 1 | < 60 | ≤ 1
4 | CC1=C(c2cccc(O)c2)C(c2ccc(OC[C@H](C)N3CCCC3)cc2)Oc2ccc(O)cc21 (stereo partly drawn) [Example 6, 3-(3-Hydroxyphenyl)-4-methyl-2-(4-((S)-2-(pyrrolidin-1-yl)propoxy)phenyl)-2H-chromen-6-ol] | ++ (++ = a single % value ≧50%) | ≤ 1 | ≥ 65 | ≤ 1 | 60 to 85 | ≤ 1
5 | CC1=C(c2cccc(O)c2)C(c2ccc(OC[C@@H](C)N3CCCC3)cc2)Oc2ccc(O)cc21 (stereo partly drawn) [Example 7, 3-(3-Hydroxyphenyl)-4-methyl-2-(4-((R)-2-(pyrrolidin-1-yl)propoxy)phenyl)-2H-chromen-6-ol] | + (+ = a single % value <50%) | ≤ 1 | < 40 | > 1 | < 60 | ≤ 1
6 | CC1=C(c2cccc(O)c2)C(c2ccc(OCCN3CC[C@@H](C)C3)cc2)Oc2ccc(O)cc21 (stereo partly drawn) [Example 8, 3-(3-Hydroxyphenyl)-4-methyl-2-(4-(2-((R)-3-methylpyrrolidin-1-yl)ethoxy)phenyl)-2H-chromen-6-ol] | ++ (++ = a single % value ≧50%) | ≤ 1 | ≥ 65 | ≤ 1 | ≥ 85 | ≤ 1
7 | CC1=C(c2cccc(O)c2)C(c2ccc(OCCN3CCCCC3)cc2)Oc2ccc(O)cc21 (stereo not drawn) [Example 9, 3-(3-Hydroxyphenyl)-4-methyl-2-(4-(2-piperidylethoxy)phenyl)-2H-chromen-6-ol] | ++ (++ = a single % value ≧50%) | ≤ 1 | 40 to 65 | ≤ 1 | 60 to 85 | ≤ 1
8 | CC1=C(c2cccc(O)c2)C(c2ccc(OC[C@@H](C)N3CC[C@@H](C)C3)cc2)Oc2ccc(O)cc21 (stereo partly drawn) [Example 10, 3-(3-Hydroxyphenyl)-4-methyl-2-(4-((R)-2-((R)-3-methylpyrrolidin-1-yl)propoxy)phenyl)-2H-chromen-6-ol] | + (+ = a single % value <50%) | ≤ 1 | < 40 | ≤ 1 | 60 to 85 | ≤ 1
9 | CC1=C(c2cccc(O)c2)C(c2ccc(OCCN3CC[C@H](C)C3)cc2)Oc2ccc(O)cc21 (stereo partly drawn) [Example 11, 3-(3-Hydroxyphenyl)-4-methyl-2-(4-(2-((S)-3-methylpyrrolidin-1-yl)ethoxy)phenyl)-2H-chromen-6-ol] | ++ (++ = a single % value ≧50%) | ≤ 1 | 40 to 65 | ≤ 1 | 60 to 85 | ≤ 1
10 | CC1=C(c2cccc(O)c2)C(c2ccc(OC[C@H](C)N3CC[C@H](C)C3)cc2)Oc2ccc(O)cc21 (stereo partly drawn) [Example 12, 3-(3-Hydroxyphenyl)-4-methyl-2-(4-((S)-2-((S)-3-methylpyrrolidin-1-yl)propoxy)phenyl)-2H-chromen-6-ol] | ++ (++ = a single % value ≧50%) | ≤ 1 | 40 to 65 | ≤ 1 | 60 to 85 | ≤ 1
11 | CC1=C(c2cccc(O)c2)C(c2ccc(OC[C@@H](C)N3CC[C@H](C)C3)cc2)Oc2ccc(O)cc21 (stereo partly drawn) [Example 13, 3-(3-Hydroxyphenyl)-4-methyl-2-(4-((R)-2-((S)-3-methylpyrrolidin-1-yl)propoxy)phenyl)-2H-chromen-6-ol] | ++ (++ = a single % value ≧50%) | ≤ 1 | < 40 | ≤ 1 | < 60 | ≤ 1
12 | CC1=C(c2cccc(O)c2)C(c2ccc(OCCn3cccc3)cc2)Oc2ccc(O)cc21 (stereo not drawn) [Example 14, 3-(3-Hydroxyphenyl)-4-methyl-2-(4-(2-pyrrolylethoxy)phenyl)-2H-chromen-6-ol] | + (+ = a single % value <50%) | ≤ 1 | 40 to 65 | ≤ 1 | 60 to 85 | ≤ 1
13 | CC1=C(c2cccc(O)c2)C(c2ccc(OC[C@H](C)N3CCCCCC3)cc2)Oc2ccc(O)cc21 (stereo partly drawn) [Example 15, 2-(4-((S)-2-(Azepan-1-yl)propoxy)phenyl)-3-(3-hydroxyphenyl)-4-methyl-2H-chromen-6-ol] | ++ (++ = a single % value ≧50%) | ≤ 1 | 40 to 65 | ≤ 1 | 60 to 85 | ≤ 1
